Patent publication US20240158446A1, “CYCLIC COMPOUND HAVING SELECTIVE INHIBITORY ACTION ON KRAS OVER HRAS AND NRAS” (CHUGAI SEIYAKU KABUSHIKI KAISHA, priority 2021, published 2024)

Legend:
[1] = target: GDP-bound KRAS wild-type protein (Homo sapiens, UniProt P01116); test: Binding to KRAS by surface plasmon resonance (SPR), Single Cycle Kinetics; conditions: SPR, Single Cycle Kinetics, GDP-bound KRAS wild-type protein; read-out: KRAS KD
[2] = target: GDP-bound NRAS wild-type protein (Homo sapiens, UniProt P01111); test: Binding to NRAS by surface plasmon resonance (SPR), Single Cycle Kinetics; conditions: SPR, GDP-bound NRAS wild-type protein vs GDP-bound KRAS wild-type protein
Chain of GDP-bound NRAS wild-type protein (P01111 whole entry): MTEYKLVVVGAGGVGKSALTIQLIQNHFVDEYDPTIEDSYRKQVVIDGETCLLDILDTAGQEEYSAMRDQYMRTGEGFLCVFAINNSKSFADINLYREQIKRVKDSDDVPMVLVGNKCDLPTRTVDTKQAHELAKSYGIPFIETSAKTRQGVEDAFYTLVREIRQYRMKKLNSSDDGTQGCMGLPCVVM

[3] = target: GDP-bound HRAS wild-type protein (Homo sapiens, UniProt P01112); test: Binding to HRAS by surface plasmon resonance (SPR), Single Cycle Kinetics; conditions: SPR, GDP-bound HRAS wild-type protein vs GDP-bound KRAS wild-type protein
Chain of GDP-bound HRAS wild-type protein (P01112 whole entry): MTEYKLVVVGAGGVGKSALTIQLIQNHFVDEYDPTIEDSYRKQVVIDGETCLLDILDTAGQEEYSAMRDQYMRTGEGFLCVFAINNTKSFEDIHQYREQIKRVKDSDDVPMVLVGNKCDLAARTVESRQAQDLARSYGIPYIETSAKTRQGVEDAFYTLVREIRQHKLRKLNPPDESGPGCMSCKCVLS

Chain of GDP-bound KRAS wild-type protein (P01116 whole entry): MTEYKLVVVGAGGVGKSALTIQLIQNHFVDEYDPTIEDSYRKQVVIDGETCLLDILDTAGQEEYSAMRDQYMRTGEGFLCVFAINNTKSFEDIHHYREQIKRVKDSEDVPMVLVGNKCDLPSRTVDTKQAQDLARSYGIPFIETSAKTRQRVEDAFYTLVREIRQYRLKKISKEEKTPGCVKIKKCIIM

Row | Structure (SMILES) | Kd [1] | NRAS/KRAS (ratio of KD value for NRAS to KD value for KRAS) [2] | HRAS/KRAS (ratio of KD value for HRAS to KD value for KRAS) [3]
1 | CC[C@H](C)[C@@H]1NC(=O)[C@H](COC)N(C)C(=O)C[C@@H](C(=O)N2CCOCC2)N(C)C(=O)[C@H](C2CCCC2)N(C)C(=O)C2(CCC2)NC(=O)[C@@H]2CC(F)(F)CN2C(=O)[C@H](CCc2cc(F)c(C(F)(F)F)c(F)c2)NC(=O)CN(C)C(=O)[C@H](Cc2ccc(C(F)(F)F)cc2)N2CCCCC[C@@H](C2=O)N(C)C(=O)CNC1=O [PP0861] | 0.66 nM | B (a compound having 3 or more and less than 10 is denoted as B) | B (a compound having 3 or more and less than 10 is denoted as B)
2 | CCO[C@@H]1C[C@H]2C(=O)NC3(CCC3)C(=O)N(C)[C@@H](C3CCCC3)C(=O)N(C)[C@H](C(=O)N3CCOCC3)CC(=O)N(C)[C@@H](COC)C(=O)N[C@@H]([C@@H](C)CC)C(=O)N3CC[C@H]3C(=O)N(C)[C@H]3CCCCCN(C3=O)[C@@H](Cc3ccc(C(F)(F)F)cc3)C(=O)N(C)CC(=O)N[C@@H](CCc3cc(F)c(C(F)(F)F)c(F)c3)C(=O)N2C1 [PP0863] | 0.6 nM | B (a compound having 3 or more and less than 10 is denoted as B) | B (a compound having 3 or more and less than 10 is denoted as B)
3 | CCO[C@@H]1C[C@H]2C(=O)NC3(CCC3)C(=O)N(C)[C@@H](C3CCCC3)C(=O)N(C)[C@H](C(=O)N(C)C)CC(=O)N(C)[C@@H](COC)C(=O)N[C@@H]([C@@H](C)CC)C(=O)N3CC[C@H]3C(=O)N(C)[C@H]3CCCCCN(C3=O)[C@@H](Cc3ccc(C(F)(F)F)cc3)C(=O)N(C)CC(=O)N[C@@H](CCc3cc(F)c(C(F)(F)F)c(F)c3)C(=O)N2C1 [PP0864] | 0.49 nM | B (a compound having 3 or more and less than 10 is denoted as B) | B (a compound having 3 or more and less than 10 is denoted as B)
4 | CC[C@H](C)[C@@H]1NC(=O)[C@H](COC)N(C)C(=O)C[C@@H](C(=O)N2CCOCC2)N(C)C(=O)[C@H](C2CCCC2)N(C)C(=O)C2(CCC2)NC(=O)[C@@H]2CCCN2C(=O)[C@H](CCc2cc(F)c(C(F)(F)F)c(F)c2)NC(=O)CN(C)C(=O)[C@H](Cc2ccc(C(F)(F)F)cc2)N2CCCCC[C@@H](C2=O)N(C)C(=O)[C@@H]2CCN2C1=O [PP0865] | 1.1 nM | B (a compound having 3 or more and less than 10 is denoted as B) | B (a compound having 3 or more and less than 10 is denoted as B)
5 | CC[C@H](C)[C@@H]1NC(=O)[C@H](COC)N(C)C(=O)C[C@@H](C(=O)N2CCOCC2)N(C)C(=O)[C@H](C2CCCC2)N(C)C(=O)C2(CCC2)NC(=O)[C@@H]2CC(F)(F)CN2C(=O)[C@H](CCc2cc(F)c(C(F)(F)F)c(F)c2)NC(=O)CN(C)C(=O)[C@H](Cc2ccc(C(F)(F)F)cc2)N2CCCCC[C@@H](C2=O)N(C)C(=O)[C@@H]2CCN2C1=O [PP0866] | 0.53 nM | B (a compound having 3 or more and less than 10 is denoted as B) | B (a compound having 3 or more and less than 10 is denoted as B)
6 | CC[C@H](C)[C@@H]1NC(=O)[C@H](CC(C)C)N(C)C(=O)C[C@@H](C(=O)N2CCOCC2)N(C)C(=O)[C@H](C2CCCC2)N(C)C(=O)C2(CCC2)NC(=O)[C@@H]2C[C@@H](O)CN2C(=O)[C@H](CCc2cc(F)c(C(F)(F)F)c(F)c2)NC(=O)CN(C)C(=O)[C@H](Cc2ccc(C(F)(F)F)cc2)N2CCCC[C@@H](C2=O)N(C)C(=O)CN(C)C1=O [PP0868] | 0.053 nM | C (A compound having a KD ratio of 0.1 or more and less than 3 is denoted as C) | B (a compound having 3 or more and less than 10 is denoted as B)
7 | CC[C@H](C)[C@@H]1NC(=O)[C@H](CC(C)C)N(C)C(=O)C[C@@H](C(=O)N2CCOCC2)N(C)C(=O)[C@H](C2CCCC2)N(C)C(=O)C2(CCC2)NC(=O)[C@@H]2[C@@H](O)CCN2C(=O)[C@H](CCc2cc(F)c(C(F)(F)F)c(F)c2)NC(=O)CN(C)C(=O)[C@H](Cc2ccc(C(F)(F)F)cc2)N2CCCC[C@@H](C2=O)N(C)C(=O)CN(C)C1=O [PP0869] | 0.056 nM | B (a compound having 3 or more and less than 10 is denoted as B) | B (a compound having 3 or more and less than 10 is denoted as B)
8 | CC[C@H](C)[C@@H]1NC(=O)[C@H](CC(C)C)N(C)C(=O)C[C@@H](C(=O)N2CCOCC2)N(C)C(=O)[C@H](C2CCCC2)N(C)C(=O)C2(CCC2)NC(=O)[C@@H]2[C@H](O)CCN2C(=O)[C@H](CCc2cc(F)c(C(F)(F)F)c(F)c2)NC(=O)CN(C)C(=O)[C@H](Cc2ccc(C(F)(F)F)cc2)N2CCCC[C@@H](C2=O)N(C)C(=O)CN(C)C1=O [PP0870] | 0.057 nM | B (a compound having 3 or more and less than 10 is denoted as B) | B (a compound having 3 or more and less than 10 is denoted as B)
9 | C=CC[C@H]1C(=O)N[C@@H]([C@@H](C)CC)C(=O)N(C)CC(=O)N(C)[C@H]2CCCCN(C2=O)[C@@H](Cc2ccc(C(F)(F)F)cc2)C(=O)N(C)CC(=O)N[C@@H](CCc2cc(F)c(C(F)(F)F)c(F)c2)C(=O)N2C[C@H](OCC)C[C@H]2C(=O)N[C@](C)(CC=C)C(=O)N(C)[C@@H](C2CCCC2)C(=O)N(C)[C@H](C(=O)N2CCOCC2)CC(=O)N1C [PP0874] | 0.1 nM | C (A compound having a KD ratio of 0.1 or more and less than 3 is denoted as C) | B (a compound having 3 or more and less than 10 is denoted as B)
10 | C=CCC[C@H]1C(=O)N[C@@H]([C@@H](C)CC)C(=O)N(C)CC(=O)N(C)[C@H]2CCCCN(C2=O)[C@@H](Cc2ccc(C(F)(F)F)cc2)C(=O)N(C)CC(=O)N[C@@H](CCc2cc(F)c(C(F)(F)F)c(F)c2)C(=O)N2C[C@H](OCC)C[C@H]2C(=O)N[C@](C)(CC=C)C(=O)N(C)[C@@H](C2CCCC2)C(=O)N(C)[C@H](C(=O)N2CCOCC2)CC(=O)N1C [PP0875] | 0.096 nM | C (A compound having a KD ratio of 0.1 or more and less than 3 is denoted as C) | B (a compound having 3 or more and less than 10 is denoted as B)
11 | C=CCCC[C@H]1C(=O)N[C@@H]([C@@H](C)CC)C(=O)N(C)CC(=O)N(C)[C@H]2CCCCN(C2=O)[C@@H](Cc2ccc(C(F)(F)F)cc2)C(=O)N(C)CC(=O)N[C@@H](CCc2cc(F)c(C(F)(F)F)c(F)c2)C(=O)N2C[C@H](OCC)C[C@H]2C(=O)N[C@](C)(CC=C)C(=O)N(C)[C@@H](C2CCCC2)C(=O)N(C)[C@H](C(=O)N2CCOCC2)CC(=O)N1C [PP0876] | 0.4 nM | C (A compound having a KD ratio of 0.1 or more and less than 3 is denoted as C) | C (A compound having a KD ratio of 0.1 or more and less than 3 is denoted as C)
